Tests used:
Format in all cases: in vivo
[1] = tested on: Italian ryegrass (Lolium multiflorum); assay: Test A preemergence, visual injury rating
In short: (§1)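 Visual 0–100 rating (100 = complete control) taken about 10 d post-treatment relative to untreated checks. Preemergence: directed soil spray on sown loam/sand pots. Postemergence: seedlings 2–10 cm, 1–2 leaf. Non-phytotoxic solvent formulation with surfactant.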

[2] = tested on: barnyardgrass (Echinochloa crus-galli); assay: Test A preemergence, visual injury rating
In short: as §1

[3] = tested on: giant foxtail (Setaria faberii); assay: Test A preemergence, visual injury rating
In short: as §1

[4] = tested on: kochia (Kochia scoparia); assay: Test A preemergence, visual injury rating
In short: as §1

[5] = tested on: pigweed (Amaranthus retroflexus); assay: Test A preemergence, visual injury rating
In short: as §1

[6] = tested on: ragweed (common ragweed, Ambrosia elatior); assay: Test A preemergence, visual injury rating
In short: as §1

[7] = tested on: Italian ryegrass (Lolium multiflorum); assay: Test A postemergence, visual injury rating; conditions: 0 is no effect, 100 is complete control; for Ryegrass, Italian plant response rating: 0 to 100 scale, approximately 10 days
In short: as §1

[8] = tested on: barnyardgrass (Echinochloa crus-galli); assay: Test A postemergence, visual injury rating; conditions: 0 is no effect, 100 is complete control; for Barnyardgrass plant response rating: 0 to 100 scale, approximately 10 days
In short: as §1

[9] = tested on: blackgrass (Alopecurus myosuroides); assay: Test A postemergence, visual injury rating; conditions: 0 is no effect, 100 is complete control; for Blackgrass plant response rating: 0 to 100 scale, approximately 10 days
In short: as §1

[10] = tested on: corn (Zea mays); assay: Test A postemergence, visual injury rating; conditions: 0 is no effect, 100 is complete control; for Corn plant response rating: 0 to 100 scale, approximately 10 days
In short: as §1

[11] = tested on: galium (catchweed bedstraw, Galium aparine); assay: Test A postemergence, visual injury rating; conditions: 0 is no effect, 100 is complete control; for Galium plant response rating: 0 to 100 scale, approximately 10 days
In short: as §1

[12] = tested on: giant foxtail (Setaria faberii); assay: Test A postemergence, visual injury rating; conditions: 0 is no effect, 100 is complete control; for Foxtail, Giant plant response rating: 0 to 100 scale, approximately 10 days
In short: as §1

[13] = tested on: kochia (Kochia scoparia); assay: Test A postemergence, visual injury rating; conditions: 0 is no effect, 100 is complete control; for Kochia plant response rating: 0 to 100 scale, approximately 10 days
In short: as §1

[14] = tested on: pigweed (Amaranthus retroflexus); assay: Test A postemergence, visual injury rating; conditions: 0 is no effect, 100 is complete control; for Pigweed plant response rating: 0 to 100 scale, approximately 10 days
In short: as §1

[15] = tested on: ragweed (common ragweed, Ambrosia elatior); assay: Test A postemergence, visual injury rating; conditions: 0 is no effect, 100 is complete control; for Ragweed plant response rating: 0 to 100 scale, approximately 10 days
In short: as §1

[16] = tested on: wheat (Triticum aestivum); assay: Test A postemergence, visual injury rating; conditions: 0 is no effect, 100 is complete control; for Wheat plant response rating: 0 to 100 scale, approximately 10 days
In short: as §1

[17] = tested on: barnyardgrass (Echinochloa crus-galli); assay: Test B flooded paddy test, plant response rating; conditions: 250 g ai/ha, Flood, scale of 0 to 100 where 0 is no effect and 100 is complete control, 13 to 15 days
In short: (§2)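 In-water treatment: compound dosed into 3 cm flood over soil, water level unchanged throughout. Controls run alongside; visual assessment at day 13–15.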

[18] = tested on: ducksalad (Heteranthera limosa); assay: Test B flooded paddy test, plant response rating; conditions: 250 g ai/ha, Flood, scale of 0 to 100 where 0 is no effect and 100 is complete control, 13 to 15 days
In short: as §2

[19] = tested on: rice (Oryza sativa); assay: Test B flooded paddy test, plant response rating; conditions: 250 g ai/ha, Flood, scale of 0 to 100 where 0 is no effect and 100 is complete control, 13 to 15 days
In short: as §2

[20] = tested on: sedge, umbrella (small-flower umbrella sedge, Cyperus difformis); assay: Test B flooded paddy test, plant response rating; conditions: 250 g ai/ha, Flood, scale of 0 to 100 where 0 is no effect and 100 is complete control, 13 to 15 days
In short: as §2

[21] = 31 g ai/ha, 0 to 100 scale, 0 no effect, 100 complete control
[22] = 125 g ai/ha, 0 to 100 scale (0 no effect, 100 complete control)

| SMILES | Plant response rating, Ryegrass, Italian [1, 21] | Plant response rating, Barnyardgrass [2, 21] | Plant response rating, Foxtail, Giant [3, 21] | Plant response rating, Kochia [4, 21] | Plant response rating, Pigweed [5, 21] | Plant response rating, Ragweed [6, 21] | Ryegrass, Italian plant response rating ([7]; 31 g ai/ha) | Barnyardgrass plant response rating ([8]; 31 g ai/ha) | Blackgrass plant response rating ([9]; 31 g ai/ha) | Corn plant response rating ([10]; 31 g ai/ha) | Galium plant response rating ([11]; 31 g ai/ha) | Foxtail, Giant plant response rating ([12]; 31 g ai/ha) | Kochia plant response rating ([13]; 31 g ai/ha) | Pigweed plant response rating ([14]; 31 g ai/ha) | Ragweed plant response rating ([15]; 31 g ai/ha) | Wheat plant response rating ([16]; 31 g ai/ha) | Plant response rating, Ryegrass, Italian [1, 22] | Plant response rating, Foxtail, Giant [3, 22] | Plant response rating, Kochia [4, 22] | Plant response rating, Pigweed [5, 22] | further results |
| --- | --- | --- | --- | --- | --- | --- | --- | --- | --- | --- | --- | --- | --- | --- | --- | --- | --- | --- | --- | --- | --- |
| O=C(OCCC(F)(F)F)c1cc(C(F)(F)F)ccc1Oc1ncc(Cl)cn1 [Compound 53] | 0 | 0 | 0 | 0 | 0 | 0 | 0 | 0 | 0 | 0 | 0 | 0 | 0 | 0 | 0 | 0 |  |  |  |  | pest or weed control at 125 g/ha ([1]; Lolium multiflorum, pre-emergence, 240 h, 125 g ai/ha, 0 to 100 scale (0 no effect, 100 complete control), read-out: Ryegrass, Italian plant response rating): 0%; pest or weed control at 125 g/ha ([2]; Echinochloa crus-galli, pre-emergence, 240 h, 125 g ai/ha, 0 to 100 scale (0 no effect, 100 complete control), read-out: Barnyardgrass plant response rating): 0%; pest or weed control at 125 g/ha ([3]; Setaria faberi, pre-emergence, 240 h, 125 g ai/ha, 0 to 100 scale (0 no effect, 100 complete control), read-out: Foxtail, Giant plant response rating): 0%; pest or weed control at 125 g/ha ([4]; Bassia scoparia, pre-emergence, 240 h, 125 g ai/ha, 0 to 100 scale (0 no effect, 100 complete control), read-out: Kochia plant response rating): 0%; pest or weed control at 125 g/ha ([5]; Amaranthus retroflexus, pre-emergence, 240 h, 125 g ai/ha, 0 to 100 scale (0 no effect, 100 complete control), read-out: Pigweed plant response rating): 0%; pest or weed control at 125 g/ha ([6]; Ambrosia artemisiifolia, pre-emergence, 240 h, 125 g ai/ha, 0 to 100 scale (0 no effect, 100 complete control), read-out: Ragweed plant response rating): 0%; pest or weed control at 125 g/ha ([7]; Lolium multiflorum, post-emergence, 240 h, 125 g ai/ha, read-out: Ryegrass, Italian plant response rating (0 to 100 scale)): 0%; pest or weed control at 125 g/ha ([8]; Echinochloa crus-galli, post-emergence, 240 h, 125 g ai/ha, read-out: Barnyardgrass plant response rating (0 to 100 scale)): 0%; pest or weed control at 125 g/ha ([9]; Alopecurus myosuroides, post-emergence, 240 h, 125 g ai/ha, read-out: Blackgrass plant response rating (0 to 100 scale)): 0%; plant injury at 125 g/ha ([10]; Zea mays, post-emergence, 240 h, 125 g ai/ha, read-out: Corn plant response rating (0 to 100 scale)): 0%; pest or weed control at 125 g/ha ([11]; Galium, post-emergence, 240 h, 125 g ai/ha, read-out: Galium plant response rating (0 to 100 scale)): 0%; pest or weed control at 125 g/ha ([12]; Setaria faberi, post-emergence, 240 h, 125 g ai/ha, read-out: Foxtail, Giant plant response rating (0 to 100 scale)): 0%; pest or weed control at 125 g/ha ([13]; Bassia scoparia, post-emergence, 240 h, 125 g ai/ha, read-out: Kochia plant response rating (0 to 100 scale)): 0%; pest or weed control at 125 g/ha ([14]; Amaranthus retroflexus, post-emergence, 240 h, 125 g ai/ha, read-out: Pigweed plant response rating (0 to 100 scale)): 0%; pest or weed control at 125 g/ha ([15]; Ambrosia artemisiifolia, post-emergence, 240 h, 125 g ai/ha, read-out: Ragweed plant response rating (0 to 100 scale)): 0%; plant injury at 125 g/ha ([16]; Triticum aestivum, post-emergence, 240 h, 125 g ai/ha, read-out: Wheat plant response rating (0 to 100 scale)): 0%; pest or weed control at 250 g/ha ([17]; Echinochloa crus-galli, 312 h): 0%; pest or weed control at 250 g/ha ([18]; Heteranthera limosa, 312 h): 0%; plant injury at 250 g/ha ([19]; Oryza sativa, 312 h): 0%; pest or weed control at 250 g/ha ([20]; Cyperus difformis, 312 h): 0% |
| C#CCOC(=O)c1c(Br)cccc1Oc1ncc(Cl)cn1 [Compound 108] | 0 | 10 | 10 | 0 | 0 | 0 | 0 | 0 | 0 | 10 | 20 | 0 | 20 | 20 | 0 | 0 | 0 | 80 | 10 | 70 | Barnyardgrass plant response rating [2, 22]: 30; Plant response rating, Ragweed [6, 22]: 0; Ryegrass, Italian plant response rating ([7]; 125 g ai/ha): 0; Barnyardgrass plant response rating ([8]; 125 g ai/ha): 10; Blackgrass plant response rating ([9]; 125 g ai/ha): 0; Corn plant response rating ([10]; 125 g ai/ha): 20; Galium plant response rating ([11]; 125 g ai/ha): 40; Foxtail, Giant plant response rating ([12]; 125 g ai/ha): 10; Kochia plant response rating ([13]; 125 g ai/ha): 40; Pigweed plant response rating ([14]; 125 g ai/ha): 50; Ragweed plant response rating ([15]; 125 g ai/ha): 0; Wheat plant response rating ([16]; 125 g ai/ha): 0; Plant response rating, Barnyardgrass [17]: 0; Plant response rating, Ducksalad [18]: 80; Plant response rating, Rice [19]: 0; Plant response rating, Sedge, Umbrella [20]: 60 |
| CCOc1cccc(Oc2ncc(Cl)cn2)c1C(=O)OCCC(F)(F)F [Compound 116] | 0 | 0 | 0 | 0 | 50 | 30 | 0 | 0 | 0 | 0 | 30 | 0 | 0 | 40 | 0 | 0 | 0 | 30 | 0 | 70 | Plant response rating, Barnyardgrass [2, 22]: 0; Plant response rating, Ragweed [6, 22]: 0; Ryegrass, Italian plant response rating ([7]; 125 g ai/ha): 0; Barnyardgrass plant response rating ([8]; 125 g ai/ha): 10; Blackgrass plant response rating ([9]; 125 g ai/ha): 0; Corn plant response rating ([10]; 125 g ai/ha): 10; Galium plant response rating ([11]; 125 g ai/ha): 60; Foxtail, Giant plant response rating ([12]; 125 g ai/ha): 20; Kochia plant response rating ([13]; 125 g ai/ha): 10; Pigweed plant response rating ([14]; 125 g ai/ha): 50; Ragweed plant response rating ([15]; 125 g ai/ha): 0; Wheat plant response rating ([16]; 125 g ai/ha): 0; Plant response rating, Barnyardgrass [17]: 30; Plant response rating, Ducksalad [18]: 75; Plant response rating, Rice [19]: 70; Plant response rating, Sedge, Umbrella [20]: 90 |

— patent US11053204B2, “Pyrimidinyloxy benzene derivatives as herbicides” (FMC Corporation, priority 2015, dated 2021)
